Results as given in ChEMBL document CHEMBL1151146, “Starfish Saponins, Part 43. Structures of Two New Sulfated Steroidal Fucofuranosides (Imbricatosides A and B) and Six New Polyhydroxysteroids from the Starfish Dermasterias imbricata” (J Nat Prod, 1990).
Values belong to the molecule of their own block, whether it stands above or below them. Active and inactive are the calls of the source. The calls are words filed in the database; no cut-off is given here.

Assays:
Cladosporium cucumerinum [1] = assay: Antimicrobial activity against Cladosporium cucumerinum at 5 ug by TLC-based direct bioautography; assay type: functional, organism-based
Cladosporium cucumerinum [2] = assay: Antimicrobial activity against Cladosporium cucumerinum at 3 ug by TLC-based direct bioautography; assay type: functional, organism-based
Cladosporium cucumerinum [3] = assay: Antimicrobial activity against Cladosporium cucumerinum at <1 ug by TLC-based direct bioautography; assay type: functional, organism-based
[4] = Inhibition of cell division of fertilized sea urchin eggs; parameters: species or system Egg; settings: echinoidea

Structure (SMILES): C[C@H](CO)C/C=C/[C@@H](C)[C@H]1C[C@@H](O)[C@@H]2[C@]1(C)CC[C@@H]1[C@@]3(C)CC[C@H](O)C[C@@H]3[C@@H](O)C[C@]12O
Activity (Cladosporium cucumerinum [1]): Active

Structure (SMILES): CC(C)[C@@H](O)CC[C@@H](C)[C@H]1C[C@@H](O)[C@@H]2[C@]1(C)CC[C@@H]1[C@@]3(C)CC[C@H](O)C[C@@H]3[C@@H](O)C[C@]12O
Activity (Cladosporium cucumerinum [2]): Active

Activity [4]: Active
Structure (SMILES): CC(C)[C@@H](O)/C=C/[C@@H](C)[C@H]1C[C@@H](O)[C@@H]2[C@]1(C)CC[C@@H]1[C@@]3(C)CC[C@H](O)C[C@@H]3[C@@H](O)C[C@]12O
Activity (Cladosporium cucumerinum [3]): Active
